Assay results from US20130310256A1, “HERBICIDAL COMPOSITIONS COMPRISING 4-AMINO-3-CHLORO-5-FLUORO-6-(4-CHLORO-2-FLUORO-3-METHOXYPHENYL) PYRIDINE-2-CARBOXYLIC ACID OR A DERIVATIVE THEREOF AND VLCFA AND LIPID SYNTHESIS INHIBITING HERBICIDES” (DOW AGROSCIENCES LLC, priority 2008, published 2013).

Columns and labels:
[1] = system: ECHCG; assay: Example II: in-water applied weed control, transplanted paddy rice, greenhouse; type: in vivo, Echinochloa crus-galli (L.) Beauv. (barnyardgrass)
Protocol: (§1) Weed seeds or nutlets of the desired test plant species were planted in puddled soil (mud) prepared by mixing a shredded, non-sterilized mineral soil (50.5 percent silt, 25.5 percent clay, and 24 percent sand, with a pH of about 7.6 and an organic matter content of about 2.9 percent) and water at a 1:1 volumetric ratio. The prepared mud was dispensed in 365 mL aliquots into 16-ounce (oz.) non-perforated plastic pots with a surface area of 86.59 square centimeters (cm^2) leaving a headspace of 3 centimeters (cm) in each pot. Mud was allowed to dry overnight prior to planting or transplanting. Rice seeds were planted in Sun Gro MetroMix® 306 planting mixture, which typically has a pH of 6.0 to 6.8 and an organic matter content of about 30 percent, in plastic plug trays. Seedlings at the second or third leaf stage of growth were transplanted into 840 mL of mud contained in 32-oz. non-perforated plastic pots with a surface area of 86.59 cm^2 4 days prior to herbicide application. The paddy was created by filling the headspace of the pots with 2.5 to 3 cm of water. When required to ensure good germination and healthy plants, a fungicide treatment and/or other chemical or physical treatment was applied. The plants were grown for 4-22 days in a greenhouse with an approximate 14 hr photoperiod which was maintained at about 29′C during the day and 26° C. during the night. Nutrients were added as Osmocote® (19:6:12, N:P:K+ minor nutrients) at 2 g per 16-oz. pot and 4 g per 32-oz. pot. Water was added on a regular basis to maintain the paddy flood, and supplemental lighting was provided with overhead metal halide 1000-Watt lamps as necessary. The plants were employed for testing when they reached the first through fourth true leaf stage.
(§2) Treatments consisted of the acid or esters of 4-amino-3-chloro-5-fluoro-6-(4-chloro-2-fluoro-3-methoxy-phenyl)pyridine-2-carboxylic acid (compound A) each formulated as an SC (suspension concentrate) and various herbicidal components alone and in combination. Forms of compound A were applied on an acid equivalent basis.
(§3) The herbicidal components were applied on an active ingredient basis and included very long chain fatty acid (VLCFA) synthesis-inhibiting and fatty acid/lipid synthesis-inhibiting herbicides acetochlor (technical grade material), acetochlor+dichlormid formulateded as Topnotch®, pretilachlor (technical grade material), butachlor formulated as Butachlor EC, fentrazamide formulated as Fentrazamide EC, thiobencarb formulated as Bolero® 8EC, cafenstrole formulated as Himeadow® WP or Lapost® Flowable, benfuresate formulated as Full Shot®, anilofos (technical grade material), mefenacet (technical grade material), molinate (technical grade material), and thenylchlor (technical grade material).
(§4) Treatment requirements for each compound or herbicidal component were calculated based upon the rates being tested, the concentration of active ingredient or acid equivalent in the formulation, an application volume of 2 mL per component per pot, and an application area of 86.59 cm^2 per pot.
(§5) For formulated compounds, a measured amount was placed in an individual 100 or 200 mL glass vial and was dissolved in a volume of 1.25% (v/v) Agri-Dex® crop oil concentrate to obtain application solutions.
(§6) For technical grade compounds, a weighed amount was placed in an individual 100 to 200 mL glass vial and was dissolved in a volume of acetone to obtain concentrated stock solutions. […] The concentrated stock solutions obtained were diluted with an equivalent volume of an aqueous mixture containing 2.5% (v/v) crop oil concentrate so that the final application solutions contained 1.25% (v/v) crop oil concentrate.
(§7) Applications were made by injecting with a pipetter appropriate amounts of the application solutions, individually and sequentially, into the aqueous layer of the paddy. Control plants were treated in the same manner with the solvent blank. […]

[2] = system: LEFCH; assay: as above; type: in vivo, Leptochloa chinensis (L.) Nees (Chinese sprangletop)
Protocol: as §1, §2, §3, §4, §5, §6, §7

[3] = system: ECHCG; assay: Example V: field trial, in-water application to transplanted rice, Niigata, Japan; type: in vivo, Echinochloa crus-galli; conditions: early post-emergence; for Visual Weed Control ECHCG (11 DAA) Obs / Visual Weed Control ECHCG Obs: 11 DAA
Protocol: Post and pre-emergence field trials were conducted in Niigata, Japan. Trial sites were located in commercially grown fields of transplanted rice (Oryza sativa, variety: Koshihikari) using standard herbicide small plot research methodology. The trial plot size was 2 meters (m)×2 m with 3 replications. The nursery plants were grown in the greenhouse using practical methods and transplanted into the field at the 2.5-leaf stage on May 7, 2012. The row and in-row spaces were 30 cm and 17 cm, respectively. The crop was grown using normal cultural practices for fertilization, water management and maintenance to ensure good growth of the crop and the weeds.
Treatments consisted of the benzyl ester of 4-amino-3-chloro-5-fluoro-6-(4-chloro-2-fluoro-3-methoxyphenyl)pyridine-2-carboxylic acid (Compound A) formulated as an SC (suspension concentrate) and various herbicidal components alone and in combination. Compound A benzyl ester was applied on an active ingredient basis. The herbicidal components were applied on an active ingredient basis and included very long chain fatty acid (VLCFA) synthesis-inhibiting and fatty acid/lipid biosynthesis herbicides pretilachlor formulated as a commercially available granular formulation and benfuresate formulated as a commercially available flowable formulation.
Compound A benzyl ester SC was once diluted in 100 mL water in the 200 mL bottle/plot to achieve the desired rates and applied by water injection. Water injection applications were made by hand as evenly as possible. Pretilachlor was applied by hand, and benfuresate was applied using a pipette to achieve the desired rates. Each compound in mixture treatments was applied separately and successively. Water depth was 3 cm at application. […] Visual weed control was scored on a scale of 0 to 100 percent where 0 corresponds to no injury and 100 corresponds to complete kill.
All treatment results, both for the single product and mixtures, are an average of 3 replicates. The trial sites had naturally occurring populations of weeds. The weed spectrum included, but was not limited to, common barnyardgrass (Echinochloa crus-galli, ECHCG), monochoria (Monochoria vaginalis, MOOVA), Japanese bulrush (Scirpus juncoides, SCPJU), kuroguwai (Eleocharis kuroguwai, ELOKU), common falsepimpernel (Lindernia pyxidaria, LIDPY), Souchet tardif (Cyperus serotinus, CYPSE), small-flower flatsedge (Cyperus difformis, CYPDI), American waterwort (Elatine triandra, ELTTR), and swamp smartweed (Polygonum hydropiperoides, POLHP).
Colby's equation was used to determine the herbicidal effects expected from the mixtures (Colby, S. R. 1967. Calculation of the synergistic and antagonistic response of herbicide combinations. Weeds 15:20-22.).
Some of the compounds tested, application rates employed, plant species tested, and results for submerged (weeds have not yet emerged from the flood water) weed control are given in Table 54. Some of the compounds tested, application rates employed, plant species tested, and results for early postemergence weed control are given in Tables 55-56.

Compound: CCN(CC)C(=O)n1cnc(S(=O)(=O)c2c(C)cc(C)cc2C)n1 [Cafenstrole, N,N-diethyl-3-[(2,4,6-trimethylphenyl)sulfonyl]-1H-1,2,4-triazole-1-carboxamide]
- Visual Weed Control ECHCG Obs ([1]; 52.5 gai/ha (Himeadow WP), 21 DAA): 20%
- Visual Weed Control ECHCG Obs ([1]; 105 gai/ha (Himeadow WP), 21 DAA): 25%
- Visual Weed Control LEFCH Obs ([2]; 210 gai/ha (Lapost Flowable), 21 DAA): 38%

Compound: COc1c(Cl)ccc(-c2nc(C(=O)OCc3ccccc3)c(Cl)c(N)c2F)c1F [Compound A Benzyl Ester, benzyl ester of 4-amino-3-chloro-5-fluoro-6-(4-chloro-2-fluoro-3-methoxy-phenyl)pyridine-2-carboxylic acid]
- Visual Weed Control (%) - 21 DAA ECHCG Obs ([1]; 4.38 gae/ha): 15%
- Visual Weed Control (%) - 22 DAA ECHCG Obs ([1]; 4.38 gae/ha): 10%
- Visual Weed Control ECHCG Obs ([1]; 4.38 gae/ha, 21 DAA): 15%
- Visual Weed Control ECHCG Obs ([1]; 8 gae/ha, 19 DAA): 30%
- Visual Weed Control (%) - 21 DAA ECHCG Obs ([1]; 8.75 gae/ha): 20%
- Visual Weed Control (%) - 22 DAA ECHCG Obs ([1]; 8.75 gae/ha): 25%
- Visual Weed Control ECHCG Obs ([1]; 8.75 gae/ha, 21 DAA): 20%
- Visual Weed Control ECHCG Obs ([1]; 16 gae/ha, 19 DAA): 20%
- Visual Weed Control (%) - 21 DAA ECHCG Obs ([1]; 17.5 gae/ha): 75%
- Visual Weed Control (%) - 22 DAA ECHCG Obs ([1]; 17.5 gae/ha): 60%
- Visual Weed Control ECHCG Obs ([1]; 17.5 gae/ha, 21 DAA): 75%
- Visual Weed Control ECHCG Obs ([1]; 32 gae/ha, 19 DAA): 40%
- Visual Weed Control LEFCH Obs ([2]; 4.38 gae/ha, 22 DAA): 20%
- Visual Weed Control LEFCH Obs ([2]; 8 gae/ha, 19 DAA): 0%
- Visual Weed Control LEFCH Obs ([2]; 16 gae/ha, 19 DAA): 0%
- Visual Weed Control LEFCH Obs ([2]; 32 gae/ha, 19 DAA): 15%
- Visual Weed Control LEFCH Obs ([2]; 35 gae/ha, 21 DAA): 50%
- Visual Weed Control LEFCH Obs ([2]; 70 gae/ha, 21 DAA): 50%
- Visual Weed Control ECHCG (11 DAA) Obs ([3]; 100 gai/ha): 3.3%
- Visual Weed Control ECHCG Obs ([3]; 100 gai/ha): 6.7%
- Visual Weed Control ECHCG (16 DAA) Obs ([3]; 100 gai/ha): 20.0%

Compound: CCCOCCN(C(=O)CCl)c1c(CC)cccc1CC [Pretilachlor, 2-chloro-N-(2,6-diethylphenyl)-N-(2-propoxyethyl)acetamide]
- Visual Weed Control ECHCG Obs ([3]; 400 gai/ha): 46.7%

Compound: CCS(=O)(=O)Oc1ccc2c(c1)C(C)(C)CO2 [Benfuresate, 2,3-dihydro-3,3-dimethyl-5-benzofuranyl ethanesulfonate]
- Visual Weed Control ECHCG Obs ([1]; 75 gai/ha (Full Slot), 22 DAA): 0%
- Visual Weed Control ECHCG Obs ([1]; 150 gai/ha (Full Slot), 22 DAA): 0%
- Visual Weed Control LEFCH Obs ([2]; 75 gai/ha (Full Slot), 22 DAA): 0%
- Visual Weed Control LEFCH Obs ([2]; 150 gai/ha (Full Slot), 22 DAA): 0%
- Visual Weed Control ECHCG (11 DAA) Obs ([3]; 600 gai/ha): 6.7%
- Visual Weed Control ECHCG (16 DAA) Obs ([3]; 600 gai/ha): 20.0%

Compound: COc1c(Cl)ccc(-c2nc(C(=O)O)c(Cl)c(N)c2F)c1F [Compound A Acid, 4-amino-3-chloro-6-(4-chloro-2-fluoro-3-methoxyphenyl)-5-fluoropyridine-2-carboxylic acid]
- Visual Weed Control (%) - 21 DAA ECHCG Obs ([1]; 8.75 gae/ha): 0%
- Visual Weed Control (%) - 22 DAA ECHCG Obs ([1]; 8.75 gae/ha): 0%
- Visual Weed Control ECHCG Obs ([1]; 8.75 gae/ha, 21 DAA): 0%
- Visual Weed Control (%) - 21 DAA ECHCG Obs ([1]; 17.5 gae/ha): 0%
- Visual Weed Control (%) - 22 DAA ECHCG Obs ([1]; 17.5 gae/ha): 15%
- Visual Weed Control ECHCG Obs ([1]; 17.5 gae/ha, 21 DAA): 0%
- Visual Weed Control (%) - 21 DAA ECHCG Obs ([1]; 35 gae/ha): 20%
- Visual Weed Control (%) - 22 DAA ECHCG Obs ([1]; 35 gae/ha): 15%
- Visual Weed Control ECHCG Obs ([1]; 35 gae/ha, 21 DAA): 20%
- Visual Weed Control ECHCG Obs ([1]; 42.4 gae/ha, 22 DAA): 30%
- Visual Weed Control LEFCH Obs ([2]; 10.6 gae/ha, 22 DAA): 20%
- Visual Weed Control LEFCH Obs ([2]; 21.2 gae/ha, 22 DAA): 40%
- Visual Weed Control LEFCH Obs ([2]; 35 gae/ha, 21 DAA): 5%
- Visual Weed Control LEFCH Obs ([2]; 42.4 gae/ha, 22 DAA): 60%
- Visual Weed Control LEFCH Obs ([2]; 70 gae/ha, 21 DAA): 23%
